Source: patent US8859545B2, “Tetrahydronaphthyridine and tetrahydropyrido[4,3-D]pyrimidine compounds and compositions thereof useful for the treatment of inflammatory and respiratory diseases” (Evotec AG, priority 2005, dated 2014)

Test system: P2X2/3 chimera (P2X2/3C)
Assay: Calcium uptake assay (P2X antagonist assay, agonist-induced calcium influx)
Type: cell-based
Description: Human P2X3 (Accession no. NM_002559), P2X2 (Accession no. NM_170682) and Rat P2X3 (Accession no. NM_031075) and P2X2 (Accession no. NM_053656) are cloned into a mammalian expression vector (e.g., pcDNA5/TO or pcDNA3 Invitrogen). For coexpression of P2X2 and P2X3, the coding regions of both receptors were cloned into a bicistronic vector using methods similar to those described by Kawashima et al., Receptors Channels 5:53-60, 1998. The P2X2/3 chimera clone was created as described by Neelands et al, and then cloned into an expression vector as above. Receptors are expressed in cells (e.g., HEK293 or 1321N1) via transient transfection using standard lipid mediated transfection, or by creation of stable transfectants for each receptor. Cell lines are maintained in DMEM+5% Glutamax, the appropriate level of selective antibiotic, and 10% heat inactivated FBS.
The agonist EC50 is determined at the start of the assay and compound IC50 experiments are run using a set agonist concentration (EC50-90 depending on cell line) as stimulus. The agonists used are αβMeATP, ATP, or other ATP analogs. Compounds may be tested at concentrations ranging from 1 μM to 10 μM. Functional activity of compounds at the P2X receptor is determined by measuring their ability to inhibit agonist-induced calcium influx. Compounds may be tested for antagonist activity against the P2X2/3 chimera, the P2X3 homomer, or the P2X2/3 heteromer. To test for antagonist activity, cells expressing the appropriate receptor are seeded onto 96 or 384 well plates 18-24 hours prior to assay. On the day of the assay, cells are loaded with calcium-sensitive fluorescent dye (e.g., Fluo-4 no wash reagent-Invitrogen cat# F36206, or the BD™ PBX Calcium Assay Kit-BD cat#640175) in Hank's Buffered Salt Solution (HBSS) with up to 10 mM supplemental CaCl2. Plates are incubated at 37° C. and then equilibrated at room temperature. Antagonism of agonist-induced calcium influx is measured using a fluorescent imaging plate reader. The assay comprises two stages: a pre-treatment phase followed by a treatment phase. Compounds may be tested as follows: For the pre-treatment phase, 50 μL of 3× concentration of test compound in HBSS is added to cells containing 100 μL of dye loading media to achieve a final concentration of 1×. For the treatment phase, at a set interval after pre-treatment, 50 μL of 1× test compound plus 4× agonist solution is added to cells. Fluorescence is measured at 0.1-3 second intervals with an excitation wavelength of 494 nm and an emission wavelength of 515 nm. Responses are measured as peak fluorescence after compound-agonist addition minus baseline fluorescence prior to treatment. Percent inhibition is calculated as follows: […]
A calcium uptake assay was performed as described in paragraphs […] above.

[1] = at 10 μM (symbol after the slash)
[2] = at 3 μM (symbol before the slash)

CC1(C)C(=O)Nc2cc(Nc3ncnc4c3CN(c3ncccc3Cl)CC4)ccc21 [Compound 13, 6-[6-(3-Chloro-pyridin-2-yl)-5,6,7,8-tetrahydro-pyrido[4,3-d]pyrimidin-4-ylamino]-3,3-dimethyl-1,3-dihydro-indol-2-one]
Ca Influx P2X2/3C % Inhibition at 3 μM/10 μM [1]: /* (compound exhibited 0-25% inhibition at 10 μM)

Cc1ccc(N2CCc3ncnc(NCc4cc(F)ccc4F)c3C2)nc1 [Compound 71]
Ca Influx P2X2/3C % Inhibition at 3 μM/10 μM [2]: +++/ ^ (compound exhibited 50-75% inhibition at 3 μM)

Cc1ccc(N2CCc3ncnc(NCc4ccc(C)cc4C)c3C2)nc1 [Compound 79]
Ca Influx P2X2/3C % Inhibition at 3 μM/10 μM [2]: ++/ (compound exhibited 25-50% inhibition at 3 μM)

CCc1ccc(CN(C)c2ncnc3c2CN(c2ccc(C)cn2)CC3)cc1 [Compound 65]
Ca Influx P2X2/3C % Inhibition at 3 μM/10 μM [2]: +/ (compound exhibited 0-25% inhibition at 3 μM)

Cc1ccc(N2CCc3ncnc(NCc4ccccc4C)c3C2)nc1 [Compound 24]
Ca Influx P2X2/3C % Inhibition at 3 μM/10 μM [1]: /**** (compound exhibited 25-50% inhibition at 10 μM)

Cc1ccc(N2CCc3ncnc(NCc4ccccc4OC(F)(F)F)c3C2)nc1 [Compound 42]
Ca Influx P2X2/3C % Inhibition at 3 μM/10 μM [2]: ++++/ ^ (compound exhibited 75% or greater inhibition at 3 μM)

Cc1ccc(N2CCc3ncnc(NCCc4cccc(C(F)(F)F)c4)c3C2)nc1 [Compound 61]
Ca Influx P2X2/3C % Inhibition at 3 μM/10 μM [2]: ++++ (compound exhibited 75% or greater inhibition at 3 μM) | Ca Influx P2X2/3C % Inhibition at 3 μM/10 μM [1]: **** (compound exhibited 25-50% inhibition at 10 μM)

Cc1ccc(N2CCc3ncnc(NCc4ccc(OC(F)(F)F)cc4)c3C2)nc1 [Compound 40]
Ca Influx P2X2/3C % Inhibition at 3 μM/10 μM [2]: +++/ ^ (compound exhibited 50-75% inhibition at 3 μM)

Cc1ccc(N2CCc3ncnc(NCc4ccc(C(F)(F)F)cc4)c3C2)nc1 [Compound 50]
Ca Influx P2X2/3C % Inhibition at 3 μM/10 μM [2]: ++++/ ^ (compound exhibited 75% or greater inhibition at 3 μM)

Cc1ccc(N2CCc3ncnc(N(C)Cc4ccccc4)c3C2)nc1 [Compound 36]
Ca Influx P2X2/3C % Inhibition at 3 μM/10 μM [2]: +/ (compound exhibited 0-25% inhibition at 3 μM)

Cc1ccc(N2CCc3ncnc(NCc4ccc(F)c(C)c4)c3C2)nc1 [Compound 98]
Ca Influx P2X2/3C % Inhibition at 3 μM/10 μM [2]: ++++/ ^ (compound exhibited 75% or greater inhibition at 3 μM)

COc1cccc(CNc2ncnc3c2CN(c2ccc(C)cn2)CC3)c1 [Compound 28]
Ca Influx P2X2/3C % Inhibition at 3 μM/10 μM [2]: ++++ (compound exhibited 75% or greater inhibition at 3 μM) | Ca Influx P2X2/3C % Inhibition at 3 μM/10 μM [1]: **** (compound exhibited 25-50% inhibition at 10 μM)

Cc1ccc(N2CCc3ncnc(N(C)Cc4ccc(Cl)cc4)c3C2)nc1 [Compound 62]
Ca Influx P2X2/3C % Inhibition at 3 μM/10 μM [2]: +/ (compound exhibited 0-25% inhibition at 3 μM)

Cc1ccccc1N1CCc2ncnc(Nc3ccc(C(F)(F)F)cc3)c2C1 [Compound 10, N-(4-(Trifluoromethyl)phenyl)-5,6,7,8-tetrahydro-6-o-tolylpyrido[4,3-d]pyrimidin-4-amine]
Ca Influx P2X2/3C % Inhibition at 3 μM/10 μM [1]: /* (compound exhibited 0-25% inhibition at 10 μM)

Cc1ccc(N2CCc3ncnc(NCCc4ccc(Cl)c(Cl)c4)c3C2)nc1 [Compound 54]
Ca Influx P2X2/3C % Inhibition at 3 μM/10 μM [2]: +++/ ^ (compound exhibited 50-75% inhibition at 3 μM)

Cc1ccc(N2CCc3ncnc(NCc4cc(F)cc(C(F)(F)F)c4)c3C2)nc1 [Compound 75]
Ca Influx P2X2/3C % Inhibition at 3 μM/10 μM [2]: +/ (compound exhibited 0-25% inhibition at 3 μM)

COc1cccc(CN(C)c2ncnc3c2CN(c2ccc(C)cn2)CC3)c1 [Compound 64]
Ca Influx P2X2/3C % Inhibition at 3 μM/10 μM [2]: +/ (compound exhibited 0-25% inhibition at 3 μM)

Cc1ccc(N2CCc3ncnc(N(C)Cc4ccc(F)cc4)c3C2)nc1 [Compound 67]
Ca Influx P2X2/3C % Inhibition at 3 μM/10 μM [2]: + (compound exhibited 0-25% inhibition at 3 μM) | Ca Influx P2X2/3C % Inhibition at 3 μM/10 μM [1]: *** (compound exhibited 25-50% inhibition at 10 μM)

COc1ccccc1CNc1ncnc2c1CN(c1ccc(C)cn1)CC2 [Compound 27]
Ca Influx P2X2/3C % Inhibition at 3 μM/10 μM [1]: /**** (compound exhibited 25-50% inhibition at 10 μM)

COc1ccc(CN(C)c2ncnc3c2CN(c2ccc(C)cn2)CC3)cc1 [Compound 68]
Ca Influx P2X2/3C % Inhibition at 3 μM/10 μM [2]: +/ (compound exhibited 0-25% inhibition at 3 μM)

Cc1ccc(N2CCc3ncnc(NCCc4ccc(Cl)cc4)c3C2)nc1 [Compound 48]
Ca Influx P2X2/3C % Inhibition at 3 μM/10 μM [2]: ++++/ ^ (compound exhibited 75% or greater inhibition at 3 μM)

Cc1ccc(N2CCc3ncnc(NCc4ccccc4C(F)(F)F)c3C2)nc1 [Compound 39]
Ca Influx P2X2/3C % Inhibition at 3 μM/10 μM [2]: +++/ ^ (compound exhibited 50-75% inhibition at 3 μM)

Cc1ccc(N2CCc3ncnc(NCc4cccc(Cl)c4)c3C2)nc1 [Compound 55]
Ca Influx P2X2/3C % Inhibition at 3 μM/10 μM [2]: ++++/ ^ (compound exhibited 75% or greater inhibition at 3 μM)

FC(F)(F)c1ccc(Nc2ncnc3c2CN(c2ncccc2Cl)CC3)cn1 [Compound 4, 6-(3-Chloropyridin-2-yl)-N-(6-(trifluoromethyl)pyridin-3-yl)-5,6,7,8-tetrahydropyrido[4,3-d]pyrimidin-4-amine]
Ca Influx P2X2/3C % Inhibition at 3 μM/10 μM [1]: /* (compound exhibited 0-25% inhibition at 10 μM)

CN1CC(C)(C)c2ccc(Nc3ncnc4c3CN(c3ncccc3Cl)CC4)cc21 [Compound 16, [6-(3-Chloro-pyridin-2-yl)-5,6,7,8-tetrahydro-pyrido[4,3-d]pyrimidin-4-yl]-(3,3-dimethyl-2,3-dihydro-1-methyl-indol-6-yl)-amine]
Ca Influx P2X2/3C % Inhibition at 3 μM/10 μM [2]: +/ (compound exhibited 0-25% inhibition at 3 μM)

Cc1ccc(N2CCc3ncnc(NCc4cccc(C(F)(F)F)c4)c3C2)nc1 [Compound 38]
Ca Influx P2X2/3C % Inhibition at 3 μM/10 μM [2]: +++/ ^ (compound exhibited 50-75% inhibition at 3 μM)

Cc1ccc(N2CCc3ncnc(NCC4CCCCC4)c3C2)nc1 [Compound 26]
Ca Influx P2X2/3C % Inhibition at 3 μM/10 μM [1]: /**** (compound exhibited 25-50% inhibition at 10 μM)

COc1ccc(CCNc2ncnc3c2CN(c2ccc(C)cn2)CC3)cc1 [Compound 35]
Ca Influx P2X2/3C % Inhibition at 3 μM/10 μM [2]: ++++/ ^ (compound exhibited 75% or greater inhibition at 3 μM)

COc1ccc(CCNc2ncnc3c2CN(c2ccc(C)cn2)CC3)cc1OC [Compound 47]
Ca Influx P2X2/3C % Inhibition at 3 μM/10 μM [2]: +++/ ^ (compound exhibited 50-75% inhibition at 3 μM)
